The IC50 is the point on the concentration scale where inhibition reaches its midpoint. What is called inhibition is the relative decrease from the control value, in per cent.

This test addresses CDK12 (Homo sapiens, UniProt Q9NYV4). In words: Biochemical assay for CDK12 (LANCE TR-FRET, IC50 determination). The following applies: for IC50: CDK12, IC50 class, read-out: IC50 μM (in range); for inhibition at 10 µM: compound at 10 μM, read-out: CDK12 % Inhibition @ 10 μM. As to the method: Biochemical Assay for CDK12 (IC50 Determination):
The inhibitory activity of the test compounds was assessed by the LANCE TR-FRET assay, which detects the ATP-dependent phosphorylation of an ULight-4E-BP1 (Thr37/Thr46) substrate peptide (100 nM) by CDK12 (30 nM). Briefly, the enzyme reaction was run in reaction buffer (25 mM HEPES (pH 7.5), 10 mM MgCl2, […], 0.01% Triton x, 1 mM DTT). The assay was performed in 384-well plate format. The end concentration of the ATP substrate was […], and that of the ULight-4E-BP1 (Thr37/Thr46) substrate peptide was 100 nM, and of CDK12 was 30 nM. Pre-incubation of the compound and enzyme was performed for 60 min at room temperature. After 60 min incubation at room temperature, the reaction was terminated by the addition of 40 mM EDTA and 0.5 nM Eu-labeled anti-phospho-eIF4E-binding protein (Thr37/46) antibody in LANCE detection buffer. Time-resolved fluorescence (excitation, 320 nm; emission donor, 615 nm; emission acceptor, 665 nm) was monitored by using 2030 multilabel reader Victor5 (PerkinElmer). The Fluorescence emission of the samples were measured and the ratio was plotted against the compound concentration to generate the dose response curve. The IC50 values were derived by fitting a sigmoidal dose-response curve to a plot of assay readout over inhibitor concentration. All fits were computed with the program Prism 5.03 (Graph Pad Software, San Diego, CA). The % inhibition values at […] were calculated with respect to enzyme activity.
Background: TR-FRET usually uses a lanthanide donor and a delayed reading to cut background.

CDK12, sequence (Q9NYV4 whole entry): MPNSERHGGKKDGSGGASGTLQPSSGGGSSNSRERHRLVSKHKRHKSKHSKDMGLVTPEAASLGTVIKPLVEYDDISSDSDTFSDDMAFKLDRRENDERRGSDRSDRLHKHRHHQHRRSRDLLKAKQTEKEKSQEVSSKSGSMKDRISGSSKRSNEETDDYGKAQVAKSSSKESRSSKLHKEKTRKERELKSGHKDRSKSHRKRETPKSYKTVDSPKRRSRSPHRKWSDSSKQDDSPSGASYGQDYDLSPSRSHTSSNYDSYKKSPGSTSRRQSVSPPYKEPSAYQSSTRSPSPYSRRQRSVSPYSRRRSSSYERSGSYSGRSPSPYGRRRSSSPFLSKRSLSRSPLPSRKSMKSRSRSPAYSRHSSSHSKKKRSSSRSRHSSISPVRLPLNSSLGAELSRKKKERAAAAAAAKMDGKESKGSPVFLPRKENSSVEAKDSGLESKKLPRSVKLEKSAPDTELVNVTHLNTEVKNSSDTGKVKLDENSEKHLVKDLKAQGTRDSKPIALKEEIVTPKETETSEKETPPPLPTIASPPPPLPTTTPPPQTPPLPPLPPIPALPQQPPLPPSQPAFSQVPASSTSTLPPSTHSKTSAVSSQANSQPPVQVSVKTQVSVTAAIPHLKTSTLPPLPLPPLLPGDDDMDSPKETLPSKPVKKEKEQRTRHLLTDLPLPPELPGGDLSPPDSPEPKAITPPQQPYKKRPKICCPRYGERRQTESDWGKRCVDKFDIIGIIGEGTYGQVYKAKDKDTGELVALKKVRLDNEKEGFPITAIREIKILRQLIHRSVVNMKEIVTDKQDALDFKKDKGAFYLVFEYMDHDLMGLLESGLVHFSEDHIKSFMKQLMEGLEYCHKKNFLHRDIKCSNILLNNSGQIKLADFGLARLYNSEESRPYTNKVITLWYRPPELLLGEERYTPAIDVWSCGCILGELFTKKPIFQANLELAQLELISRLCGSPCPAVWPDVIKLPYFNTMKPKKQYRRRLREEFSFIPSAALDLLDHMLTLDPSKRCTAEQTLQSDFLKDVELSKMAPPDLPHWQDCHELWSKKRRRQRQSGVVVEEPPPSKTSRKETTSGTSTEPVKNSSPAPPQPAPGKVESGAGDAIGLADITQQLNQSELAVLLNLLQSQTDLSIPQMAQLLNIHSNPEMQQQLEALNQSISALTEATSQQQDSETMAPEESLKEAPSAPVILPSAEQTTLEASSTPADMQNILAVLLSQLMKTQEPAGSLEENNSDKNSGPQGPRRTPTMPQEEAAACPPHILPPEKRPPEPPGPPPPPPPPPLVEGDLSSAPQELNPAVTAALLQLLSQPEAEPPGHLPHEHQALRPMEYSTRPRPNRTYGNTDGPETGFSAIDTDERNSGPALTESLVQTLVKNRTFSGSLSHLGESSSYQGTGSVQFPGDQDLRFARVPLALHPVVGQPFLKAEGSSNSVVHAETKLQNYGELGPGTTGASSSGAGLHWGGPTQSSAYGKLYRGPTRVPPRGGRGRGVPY
CDK12, sequence (O75909 whole entry partner): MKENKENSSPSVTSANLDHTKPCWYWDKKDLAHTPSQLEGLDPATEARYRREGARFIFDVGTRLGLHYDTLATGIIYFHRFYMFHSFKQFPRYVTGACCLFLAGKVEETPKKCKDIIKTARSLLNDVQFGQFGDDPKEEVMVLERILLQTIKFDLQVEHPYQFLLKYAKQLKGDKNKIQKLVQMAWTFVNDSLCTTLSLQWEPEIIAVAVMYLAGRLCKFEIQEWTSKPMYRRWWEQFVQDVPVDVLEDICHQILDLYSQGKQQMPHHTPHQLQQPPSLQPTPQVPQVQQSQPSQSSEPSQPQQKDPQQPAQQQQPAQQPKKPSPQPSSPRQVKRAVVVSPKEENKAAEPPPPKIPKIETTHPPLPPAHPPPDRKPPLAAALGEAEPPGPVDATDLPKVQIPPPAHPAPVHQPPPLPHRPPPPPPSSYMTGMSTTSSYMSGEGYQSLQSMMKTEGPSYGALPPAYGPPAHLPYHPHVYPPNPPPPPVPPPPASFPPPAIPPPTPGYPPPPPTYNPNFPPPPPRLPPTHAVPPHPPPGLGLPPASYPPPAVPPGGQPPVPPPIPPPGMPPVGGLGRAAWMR

Regarding `CNC(=O)C(C)Oc1cc(NC(=O)Cc2ccc(C3=CCN(C#N)CC3)nc2)ncc1Cl` (stereo not drawn) [Compound 1, 2-((5-chloro-2-(2-(1′-cyano-1′,2′,3′,6′-tetrahydro-[2,4′-bipyridin]-5-yl)acetamido)pyridin-4-yl)oxy)-N-methylpropanamide], the half-maximal inhibitory concentration (IC50) is under 0.01 µM and the inhibition at 10 µM is 92%.

On to `N#CN1CC=C(c2ccc(CC(=O)Nc3ccc(Cl)cn3)cn2)CC1` [Compound 4, N-(5-chloropyridin-2-yl)-2-(1′-cyano-1′,2′,3′,6′-tetrahydro-[2,4′-bipyridin]-5-yl)acetamide], for which the IC50 fell in the range of 0.01 to 0.1 µM and the inhibition at 10 µM was determined as 75%.

Consider `N#CN1CCC=C(c2ccc(CC(=O)Nc3ccc(Cl)cn3)cn2)C1` [Compound 5, N-(5-chloropyridin-2-yl)-2-(1′-cyano-1′,2′,5′,6′-tetrahydro-[2,3′-bipyridin]-5-yl)acetamide], for which the 50% inhibitory concentration (IC50) was 0.01 to 0.1 µM and the inhibition at 10 µM was 75%.

As for `N#CN1CC=C(c2ccc(CC(=O)Nc3ccc(Cl)cn3)cn2)C1` [Compound 6, N-(5-chloropyridin-2-yl)-2-(6-(1-cyano-2,5-dihydro-1H-pyrrol-3-yl)pyridin-3-yl)acetamide], the half-maximal inhibitory concentration (IC50) is under 0.01 µM and the inhibition at 10 µM turned out to be 78%.

On to `N#CN1CC=C(c2ccc(CC(=O)Nc3cc(N4CCOCC4)c(Cl)cn3)cn2)CC1` [Compound 7, N-(5-chloro-4-morpholinopyridin-2-yl)-2-(1′-cyano-1′,2′,3′,6′-tetrahydro-[2,4′-bipyridin]-5-yl)acetamide], for which the IC50 is 0.01 to 0.1 µM and the inhibition at 10 µM was 88%.

For the molecule `COc1cc(NC(=O)Cc2ccc(C3=CCN(C#N)CC3)nc2)ncc1Cl` [Compound 8, N-(5-chloro-4-methoxypyridin-2-yl)-2-(1′-cyano-1′,2′,3′,6′-tetrahydro-[2,4′-bipyridin]-5-yl)acetamide], the 50% inhibitory concentration (IC50) is under 0.01 µM and the inhibition at 10 µM turned out to be 82%.

For the molecule `CN1CCN(c2cc(NC(=O)Cc3ccc(C4=CCN(C#N)CC4)nc3)ncc2Cl)CC1` [Compound 9, N-(5-chloro-4-(4-methylpiperazin-1-yl)pyridin-2-yl)-2-(1′-cyano-1′,2′,3′,6′-tetrahydro-[2,4′-bipyridin]-5-yl)acetamide], the inhibition at 10 µM stood at 64%.

Take `CN1CCC(Oc2cc(NC(=O)Cc3ccc(C4=CCN(C#N)CC4)nc3)ncc2Cl)C1` (stereo not drawn) [Compound 10, N-(5-chloro-4-((1-methylpyrrolidin-3-yl)oxy)pyridin-2-yl)-2-(1′-cyano-1′,2′,3′,6′-tetrahydro-[2,4′-bipyridin]-5-yl)acetamide]: the half-inhibitory concentration (IC50) was under 0.01 µM and the inhibition at 10 µM was found to be 72%.

On to `CN1CCC(Oc2cc(NC(=O)Cc3ccc(C4=CCN(C#N)CC4)nc3)ncc2Cl)CC1` [Compound 11, N-(5-chloro-4-((1-methylpiperidin-4-yl)oxy)pyridin-2-yl)-2-(1′-cyano-1′,2′,3′,6′-tetrahydro-[2,4′-bipyridin]-5-yl)acetamide], for which the IC50 was 0.01 to 0.1 µM and the inhibition at 10 µM is 89%.

`N#CN1CC=C(c2ccc(CC(=O)Nc3cc(OC4CCOC4)c(Cl)cn3)cn2)CC1` (stereo not drawn) [Compound 12, N-(5-chloro-4-((tetrahydrofuran-3-yl)oxy)pyridin-2-yl)-2-(1′-cyano-1′,2′,3′,6′-tetrahydro-[2,4′-bipyridin]-5-yl)acetamide]: the IC50 is under 0.01 µM and the inhibition at 10 µM was determined as 84%.

With `Cc1cc(CC(=O)Nc2ccc(Cl)cn2)cnc1C1=CCN(C#N)CC1` [Compound 13, N-(5-chloropyridin-2-yl)-2-(1′-cyano-3-methyl-1′,2′,3′,6′-tetrahydro-[2,4′-bipyridin]-5-yl)acetamide], the 50% inhibitory concentration (IC50) was in the range of 0.01 to 0.1 µM and the inhibition at 10 µM stood at 75%.

Take `COCC(C)Oc1cc(NC(=O)Cc2ccc(C3=CCN(C#N)CC3)nc2)ncc1Cl` (stereo not drawn) [Compound 14, N-(5-chloro-4-((1-methoxypropan-2-yl)oxy)pyridin-2-yl)-2-(1′-cyano-1′,2′,3′,6′-tetrahydro-[2,4′-bipyridin]-5-yl)acetamide]: the IC50 was under 0.01 µM and the inhibition at 10 µM was 96%.

Take `N#CN1CC=C(c2ccc(CC(=O)Nc3cc(OC4COC4)c(Cl)cn3)cn2)CC1` [Compound 15, N-(5-chloro-4-(oxetan-3-yloxy)pyridin-2-yl)-2-(1′-cyano-1′,2′,3′,6′-tetrahydro-[2,4′-bipyridin]-5-yl)acetamide]: the IC50 is under 0.01 µM and the inhibition at 10 µM was found to be 96%.

Take `N#CN1CCC(c2ccc(CC(=O)Nc3ccc(Cl)cn3)cn2)C1` (stereo not drawn) [Compound 16, N-(5-chloropyridin-2-yl)-2-(6-(1-cyanopyrrolidin-3-yl)pyridin-3-yl)acetamide]: the IC50 lay within 0.01 to 0.1 µM and the inhibition at 10 µM came out at 89%.

For the molecule `N#CN1CC=C(c2ccc(CC(=O)Nc3cc(C4(O)COC4)c(Cl)cn3)cn2)CC1` [Compound 17, N-(5-chloro-4-(3-hydroxyoxetan-3-yl)pyridin-2-yl)-2-(1′-cyano-1′,2′,3′,6′-tetrahydro-[2,4′-bipyridin]-5-yl)acetamide], the IC50 was under 0.01 µM and the inhibition at 10 µM was determined as 92%.

With `N#CN1CC=C(c2ncc(CC(=O)Nc3ccc(Cl)cn3)cc2F)CC1` [Compound 18, N-(5-chloropyridin-2-yl)-2-(1′-cyano-3-fluoro-1′,2′,3′,6′-tetrahydro-[2,4′-bipyridin]-5-yl)acetamide], the concentration for half-maximal inhibition (IC50) lay within 0.01 to 0.1 µM and the inhibition at 10 µM came to 87%.

For `N#CN1CC=C(c2ccc(CC(=O)Nc3cc(OC4CCOCC4)c(Cl)cn3)cn2)CC1` [Compound 19, N-(5-chloro-4-((tetrahydro-2H-pyran-4-yl)oxy)pyridin-2-yl)-2-(1′-cyano-1′,2′,3′,6′-tetrahydro-[2,4′-bipyridin]-5-yl)acetamide], the half-inhibitory concentration (IC50) was under 0.01 µM and the inhibition at 10 µM came out at 91%.

For `CCOc1cc(NC(=O)Cc2ccc(C3=CCN(C#N)CC3)nc2)ncc1Cl` [Compound 20, N-(5-chloro-4-ethoxypyridin-2-yl)-2-(1′-cyano-1′,2′,3′,6′-tetrahydro-[2,4′-bipyridin]-5-yl)acetamide], the 50% inhibitory concentration (IC50) is under 0.01 µM and the inhibition at 10 µM was 109%.

Take `CC(C)Oc1cc(NC(=O)Cc2ccc(C3=CCN(C#N)CC3)nc2)ncc1Cl` [Compound 21, N-(5-chloro-4-isopropoxypyridin-2-yl)-2-(1′-cyano-1′,2′,3′,6′-tetrahydro-[2,4′-bipyridin]-5-yl)acetamide]: the IC50 is under 0.01 µM and the inhibition at 10 µM amounted to 94%.

With `COCCOc1cc(NC(=O)Cc2ccc(C3=CCN(C#N)CC3)nc2)ncc1Cl` [Compound 22, N-(5-chloro-4-(2-methoxyethoxy)pyridin-2-yl)-2-(1′-cyano-1′,2′,3′,6′-tetrahydro-[2,4′-bipyridin]-5-yl)acetamide], the IC50 is under 0.01 µM and the inhibition at 10 µM came to 91%.

In the case of `CC(C)(O)c1cc(NC(=O)Cc2ccc(C3=CCN(C#N)CC3)nc2)ncc1Cl` [Compound 23, N-(5-chloro-4-(2-hydroxypropan-2-yl)pyridin-2-yl)-2-(1′-cyano-1′,2′,3′,6′-tetrahydro-[2,4′-bipyridin]-5-yl)acetamide], the 50% inhibitory concentration (IC50) was under 0.01 µM and the inhibition at 10 µM turned out to be 96%.

As for `N#CN1CC=C(c2ccc(CC(=O)Nc3cc(O[C@@H]4CCOC4)c(Cl)cn3)cn2)CC1` [Compound 26, (R)-N-(5-chloro-4-((tetrahydrofuran-3-yl)oxy)pyridin-2-yl)-2-(1′-cyano-1′,2′,3′,6′-tetrahydro-[2,4′-bipyridin]-5-yl)acetamide], the half-inhibitory concentration (IC50) was under 0.01 µM and the inhibition at 10 µM was determined as 99%.

For `N#CN1CC=C(c2ccc(CC(=O)Nc3cc(O[C@H]4CCOC4)c(Cl)cn3)cn2)CC1` [Compound 27, (S)-N-(5-chloro-4-((tetrahydrofuran-3-yl)oxy)pyridin-2-yl)-2-(1′-cyano-1′,2′,3′,6′-tetrahydro-[2,4′-bipyridin]-5-yl)acetamide], the 50% inhibitory concentration (IC50) was under 0.01 µM and the inhibition at 10 µM was found to be 93%.

With `N#CN1CC=C(c2ccc(CC(=O)Nc3cc(OC4CCC4)c(Cl)cn3)cn2)CC1` [Compound 28, N-(5-chloro-4-cyclobutoxypyridin-2-yl)-2-(1′-cyano-1′,2′,3′,6′-tetrahydro-[2,4′-bipyridin]-5-yl)acetamide], the IC50 was under 0.01 µM and the inhibition at 10 µM stood at 95%.

For `CC(CN(C)C)Oc1cc(NC(=O)Cc2ccc(C3=CCN(C#N)CC3)nc2)ncc1Cl` (stereo not drawn) [Compound 31, N-(5-chloro-4-((1-(dimethylamino)propan-2-yl)oxy)pyridin-2-yl)-2-(1′-cyano-1′,2′,3′,6′-tetrahydro-[2,4′-bipyridin]-5-yl)acetamide], the IC50 was under 0.01 µM and the inhibition at 10 µM worked out at 89%.

`CN1CCC[C@@H](Oc2cc(NC(=O)Cc3ccc(C4=CCN(C#N)CC4)nc3)ncc2Cl)C1` [Compound 32, (R)-N-(5-chloro-4-((1-methylpiperidin-3-yl)oxy)pyridin-2-yl)-2-(1′-cyano-1′,2′,3′,6′-tetrahydro-[2,4′-bipyridin]-5-yl)acetamide]: the IC50 was under 0.01 µM and the inhibition at 10 µM was determined as 84%.
